Test results as given in ChEMBL document CHEMBL1135950, “Decoding region bubble size and aminoglycoside antibiotic binding” (Bioorg Med Chem Lett, 2002).

Experiments:
Type in all cases: nucleic-acid assay, Homo sapiens
Nucleic Acid [1] = assay: Dissociation constant for binding to mitochondrial 12S rRNA construct M4 was determined
Nucleic Acid [2] = assay: Dissociation constant for binding to mitochondrial 12S rRNA construct M5 was determined
Nucleic Acid [3] = assay: Dissociation constant for binding to mitochondrial 12S rRNA construct M3 was determined
Nucleic Acid [4] = assay: Dissociation constant for binding to mitochondrial 12S rRNA construct M1 was determined; NB= No binding
Nucleic Acid [5] = assay: Dissociation constant for binding to mitochondrial 12S rRNA construct M2 was determined

Compound	Kd (Nucleic Acid [1]) [nM]	Kd (Nucleic Acid [2]) [nM]	Kd (Nucleic Acid [3]) [nM]	Kd (Nucleic Acid [4])	Kd (Nucleic Acid [5]) [nM]
CN(C)c1ccc2c(-c3ccc(C(=O)NCC4O[C@H](O[C@@H]5C(O)[C@H](O[C@@H]6C(O)[C@H](N)CC(N)[C@H]6O[C@H]6OC(CO)[C@@H](O)[C@H](O)C6N)O[C@@H]5CO)[C@H](N)C(O)[C@@H]4O)cc3C(=O)[O-])c3ccc(=[N+](C)C)cc-3oc2c1 (stereo partly specified)	750	330	260	Not Active	270
NC[C@@H]1O[C@H](O[C@H]2[C@@H](O)[C@H](O[C@@H]3[C@@H](O)[C@H](N)C[C@H](N)[C@H]3O[C@H]3O[C@H](CN)[C@@H](O)[C@H](O)[C@H]3N)O[C@@H]2CO)[C@H](N)[C@@H](O)[C@@H]1O [FRAMYCETIN]	160	3970	120	–	140
NC[C@H]1O[C@H](O[C@H]2[C@H](O)[C@@H](O[C@H]3O[C@H](CO)[C@@H](O)[C@H](N)[C@H]3O)[C@H](N)C[C@@H]2N)[C@H](O)[C@@H](O)[C@@H]1O [KANAMYCIN]	13600	2640	2080	–	3460
NC[C@@H]1O[C@H](O[C@H]2[C@@H](O)[C@H](O[C@@H]3[C@@H](O)[C@H](N)C[C@H](N)[C@H]3O[C@H]3O[C@H](CO)[C@@H](O)[C@H](O)[C@H]3N)O[C@@H]2CO)[C@H](N)[C@@H](O)[C@@H]1O [PAROMOMYCIN]	12600	5850	440	–	3830
NC[C@H]1O[C@H](O[C@H]2[C@H](O)[C@@H](O[C@H]3O[C@H](CO)[C@@H](O)[C@H](N)[C@H]3O)[C@H](N)C[C@@H]2N)[C@H](N)C[C@@H]1O [TOBRAMYCIN]	2910	5370	430	–	3260
